# Test results taken from patent US9345677B2, “Compositions, methods and kits relating to HER-2 cleavage” (Incyte Corporation, priority 2003, dated 2016).
# What was measured:
# MMP3 = molecular target: T1, MMP3 (Homo sapiens, UniProt P08254); assay: MMP3 fluorogenic peptide biochemical assay
# T1 construct: purchased R&D Systems 513-MP
# Excerpt: Source of enzymes for biochemical assays: Except for ADAM17 and MT1-MMP, all recombinant human MMPs and ADAMs were obtained from R&D Systems (Minneapolis, Minn.). […] MT1-MMP was obtained from US Biological (Swampscott, Mass.) with a catalog number of M2429. Porcine ADAM17 was purified in house from porcine spleen.
# Substrates for biochemical assays: Fluorogenic Peptide substrate, (7-methoxycoumarin-4-yl)acetyl-Pro-Leu-Gly-Leu-(3-[2,4-dinitrophenyl]-L-2,3-diaminopropionyl)-Ala-Arg-NH2 (SEQ ID NO: 46), was obtained from R&D Systems (Minneapolis, Minn.) with a catalog number of ES001. It was used as substrate for MMP1, MMP2, MMP7, MMP8, MMP9, MMP12, MMP13, and MT1-MMP. Fluorogenic Peptide substrate, (7-methoxycoumarin-4-yl)acetyl-Arg-Pro-Lys-Pro-Val-Glu-Nva-Trp-Arg-Lys(2,4-dinitrophenyl)-NH2 (SEQ ID NO: 47), was obtained from R&D Systems with a catalog number of ES002. It was used as substrate for MMP3 and MMP10. […]
# In general, 5 mM compound stock was prepared in DMSO. […] The plate was read on a plate reader with excitation of 320 nm and emission of 405 nm. Percentage of inhibition was calculated for each concentration and IC50 value was generated from curve fitting. […]
# Her-2 sheddase = assay: Her-2 ECD ELISA of BT474 culture supernatants (Her-2 sheddase inhibition); format: cell-based, human
# Method: BT474 cells were seeded in 100 μL of RPMI medium containing 10% FCS+10 μg/ml insulin in 96 well plates at 2×10^4 cells/well. The cells were incubated overnight at 37° C. The following morning, the media was removed and 100 μL of fresh media with or without compound was added back. The cells were incubated for about 72 hours at 37° C. After about 72 hours, the supernatants were removed. The samples were diluted 1:10 and analyzed using a commercially available Her-2 ELISA kit per manufacturer's instructions (Oncogene Research, catalog #QIA 10).
# These inhibitors were added, at varying concentrations, to cultures of BT474 cells, a Her-2 overexpressing breast cancer cell line known to enzymatically process cell surface Her-2 (p185) and release the extracellular domain (ECD) into the culture supernatant, i.e., shedding of ECD. After 72 hours, cell culture supernatants were harvested and assayed for Her-2 ECD content using an ELISA assay.
# T1 sequence (P08254 100-477): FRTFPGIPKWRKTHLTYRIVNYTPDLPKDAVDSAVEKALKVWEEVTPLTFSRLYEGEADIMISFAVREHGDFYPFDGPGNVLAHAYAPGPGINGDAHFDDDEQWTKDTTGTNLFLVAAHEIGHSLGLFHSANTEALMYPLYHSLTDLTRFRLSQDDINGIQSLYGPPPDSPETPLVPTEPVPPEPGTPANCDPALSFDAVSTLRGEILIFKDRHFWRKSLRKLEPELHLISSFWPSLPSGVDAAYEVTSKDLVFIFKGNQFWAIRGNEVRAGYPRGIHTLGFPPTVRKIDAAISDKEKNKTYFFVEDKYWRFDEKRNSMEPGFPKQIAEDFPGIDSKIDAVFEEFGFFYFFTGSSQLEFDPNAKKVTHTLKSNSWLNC
compound,measurement,setting,value
"Cc1cc([N+](=O)[O-])ccc1N1CCN(C(=O)[C@@H]2[C@@H](C(=O)NO)CC3(CC3)CN2C)CC1 [Compound 5, (6S,7S)-N-hydroxy-5-methyl-6-{[4-(2-methyl-4-nitrophenyl)piperazin-1-yl]-carbonyl}-5-azaspiro[2.5]octane-7-carboxamide]",MMP3 activity,MMP3,inactive
same,IC50,Her-2 sheddase,198 to 250 nM
